Reference: ChEMBL document CHEMBL5244269, “Improving metabolic stability and removing aldehyde oxidase liability in a 5-azaquinazoline series of IRAK4 inhibitors” (Bioorg Med Chem, 2020)

Assays:
[1] = target: T1, Interleukin-1 receptor-associated kinase 4 (Homo sapiens, UniProt Q9NWZ3); assay: Inhibition of IRAK4 (unknown origin) phosphorylation by cell based assay
T1 sequence (Q9NWZ3 whole entry): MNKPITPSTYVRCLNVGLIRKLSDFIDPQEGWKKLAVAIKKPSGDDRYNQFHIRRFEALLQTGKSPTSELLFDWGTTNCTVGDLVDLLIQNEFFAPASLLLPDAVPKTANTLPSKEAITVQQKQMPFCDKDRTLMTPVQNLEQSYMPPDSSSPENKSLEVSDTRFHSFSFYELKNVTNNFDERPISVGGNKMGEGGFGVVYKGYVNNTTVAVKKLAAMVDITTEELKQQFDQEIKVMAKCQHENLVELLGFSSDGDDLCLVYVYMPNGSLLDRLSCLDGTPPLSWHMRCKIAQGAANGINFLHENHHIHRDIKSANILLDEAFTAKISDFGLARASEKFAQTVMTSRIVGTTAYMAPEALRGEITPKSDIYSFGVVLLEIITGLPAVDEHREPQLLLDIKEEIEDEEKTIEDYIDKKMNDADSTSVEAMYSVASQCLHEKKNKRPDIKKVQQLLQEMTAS

[2] = species: Homo sapiens; assay: Selectivity index, ratio of IC50 for inhibition of TRKC (unknown origin) to IC50 for inhibition of IRAK4 (unknown origin)
[3] = species: Homo sapiens; assay: Selectivity index, ratio of IC50 for inhibition of TRKA (unknown origin) to IC50 for inhibition of IRAK4 (unknown origin)
[4] = Metabolic stability in human liver microsomes assessed as intrinsic clearance; format: ADME, Microsome; conditions: read-out: CLH
[5] = target: Interleukin-1 receptor-associated kinase 1 (Homo sapiens, UniProt P51617); assay: Inhibition of IRAK1 (unknown origin) in presence of 25 uM ATP
Sequence of Interleukin-1 receptor-associated kinase 1 (P51617 whole entry): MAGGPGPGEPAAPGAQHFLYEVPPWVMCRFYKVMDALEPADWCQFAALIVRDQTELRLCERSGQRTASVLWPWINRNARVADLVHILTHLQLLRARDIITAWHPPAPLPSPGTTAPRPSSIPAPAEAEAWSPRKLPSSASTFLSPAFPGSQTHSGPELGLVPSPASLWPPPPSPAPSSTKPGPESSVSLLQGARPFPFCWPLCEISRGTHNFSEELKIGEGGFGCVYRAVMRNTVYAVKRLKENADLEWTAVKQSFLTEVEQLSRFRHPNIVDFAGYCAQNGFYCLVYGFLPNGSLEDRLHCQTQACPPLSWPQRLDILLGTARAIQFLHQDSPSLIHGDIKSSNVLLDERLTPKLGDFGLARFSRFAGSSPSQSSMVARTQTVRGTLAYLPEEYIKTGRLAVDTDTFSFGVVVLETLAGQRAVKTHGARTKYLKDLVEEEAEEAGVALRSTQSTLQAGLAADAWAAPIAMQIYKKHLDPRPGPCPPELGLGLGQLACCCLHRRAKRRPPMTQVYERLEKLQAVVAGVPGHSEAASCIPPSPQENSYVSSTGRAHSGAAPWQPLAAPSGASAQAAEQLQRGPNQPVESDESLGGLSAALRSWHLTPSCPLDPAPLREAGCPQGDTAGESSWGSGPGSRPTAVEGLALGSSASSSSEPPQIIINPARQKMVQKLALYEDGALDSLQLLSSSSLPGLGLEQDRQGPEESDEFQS

[6] = Metabolic stability in human hepatocytes assessed as intrinsic clearance measured per 10^6 cells; format: ADME, cell-based, Hepatocyte; conditions: read-out: CLH
[7] = target: T1, Interleukin-1 receptor-associated kinase 4; assay: Inhibition of IRAK4 (unknown origin) in presence of ATP by enzymatic assay
[8] = target: T2, Receptor-type tyrosine-protein kinase FLT3 (Homo sapiens, UniProt P36888); assay: Inhibition of FLT3 (unknown origin) in presence of 600 uM ATP
T2 sequence (P36888 whole entry): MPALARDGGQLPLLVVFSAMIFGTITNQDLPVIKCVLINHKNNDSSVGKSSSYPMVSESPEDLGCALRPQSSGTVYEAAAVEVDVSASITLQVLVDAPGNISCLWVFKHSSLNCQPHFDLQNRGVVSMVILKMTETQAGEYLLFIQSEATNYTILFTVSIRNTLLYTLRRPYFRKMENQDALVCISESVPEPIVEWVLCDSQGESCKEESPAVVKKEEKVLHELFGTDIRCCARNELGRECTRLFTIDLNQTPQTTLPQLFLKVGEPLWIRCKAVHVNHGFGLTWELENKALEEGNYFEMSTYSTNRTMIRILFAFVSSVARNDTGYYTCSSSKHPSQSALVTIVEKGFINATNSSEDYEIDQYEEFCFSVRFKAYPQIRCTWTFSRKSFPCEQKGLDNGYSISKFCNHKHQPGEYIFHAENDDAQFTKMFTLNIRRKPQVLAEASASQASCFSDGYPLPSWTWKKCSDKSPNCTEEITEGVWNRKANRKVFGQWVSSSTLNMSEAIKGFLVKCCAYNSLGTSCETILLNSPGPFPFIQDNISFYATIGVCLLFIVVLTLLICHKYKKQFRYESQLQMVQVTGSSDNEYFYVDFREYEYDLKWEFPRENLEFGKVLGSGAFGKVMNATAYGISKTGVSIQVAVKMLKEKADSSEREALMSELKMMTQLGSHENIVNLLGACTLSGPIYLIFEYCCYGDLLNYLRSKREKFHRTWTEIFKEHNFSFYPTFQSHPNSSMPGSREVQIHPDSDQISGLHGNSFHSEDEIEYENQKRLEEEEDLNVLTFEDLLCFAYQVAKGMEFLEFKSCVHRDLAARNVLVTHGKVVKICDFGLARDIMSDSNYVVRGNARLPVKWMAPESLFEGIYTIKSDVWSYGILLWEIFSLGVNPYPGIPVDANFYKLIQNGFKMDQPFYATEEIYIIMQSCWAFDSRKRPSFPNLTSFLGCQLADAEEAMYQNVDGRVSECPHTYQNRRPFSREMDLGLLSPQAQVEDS

[9] = species: Homo sapiens; assay: Selectivity index, ratio of IC50 for inhibition of TRKB (unknown origin) to IC50 for inhibition of IRAK4 (unknown origin)
[10] = target: T3, Phosphatidylinositol 4,5-bisphosphate 3-kinase catalytic subunit delta isoform (Homo sapiens, UniProt O00329); assay: Inhibition of PI3Kdelta (unknown origin) in presence of […] uM ATP
T3 sequence (O00329 whole entry): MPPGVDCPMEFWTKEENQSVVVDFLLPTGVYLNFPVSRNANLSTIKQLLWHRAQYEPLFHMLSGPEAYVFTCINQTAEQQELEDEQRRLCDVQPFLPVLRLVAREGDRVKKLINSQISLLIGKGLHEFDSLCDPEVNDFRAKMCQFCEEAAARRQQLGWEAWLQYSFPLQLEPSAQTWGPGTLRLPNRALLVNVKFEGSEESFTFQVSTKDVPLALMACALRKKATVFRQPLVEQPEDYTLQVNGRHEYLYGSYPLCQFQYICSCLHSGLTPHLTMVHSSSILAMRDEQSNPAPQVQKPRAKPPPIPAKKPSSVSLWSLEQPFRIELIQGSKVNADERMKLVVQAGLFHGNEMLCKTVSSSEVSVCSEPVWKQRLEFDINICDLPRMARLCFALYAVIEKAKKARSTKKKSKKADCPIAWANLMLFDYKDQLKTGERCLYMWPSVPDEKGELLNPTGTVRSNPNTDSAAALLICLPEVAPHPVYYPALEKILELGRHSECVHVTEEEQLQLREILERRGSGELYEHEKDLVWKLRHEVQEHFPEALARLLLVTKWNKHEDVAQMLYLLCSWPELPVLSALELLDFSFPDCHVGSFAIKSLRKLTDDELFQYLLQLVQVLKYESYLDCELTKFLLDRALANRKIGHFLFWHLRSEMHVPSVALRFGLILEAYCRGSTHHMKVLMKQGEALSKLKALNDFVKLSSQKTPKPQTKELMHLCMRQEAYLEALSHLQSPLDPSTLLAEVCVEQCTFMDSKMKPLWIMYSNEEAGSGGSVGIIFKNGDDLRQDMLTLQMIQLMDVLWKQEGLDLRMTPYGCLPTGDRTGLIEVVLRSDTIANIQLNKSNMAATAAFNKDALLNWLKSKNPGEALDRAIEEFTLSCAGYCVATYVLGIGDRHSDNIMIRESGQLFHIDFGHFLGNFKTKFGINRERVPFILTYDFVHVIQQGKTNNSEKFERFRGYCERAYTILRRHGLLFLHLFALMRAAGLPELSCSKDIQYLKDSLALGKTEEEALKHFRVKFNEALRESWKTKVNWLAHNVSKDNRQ

[11] = target: Tyrosine-protein kinase BTK (Homo sapiens, UniProt Q06187); assay: Inhibition of BTK (unknown origin) in presence of 25 uM ATP
Sequence of Tyrosine-protein kinase BTK (Q06187 whole entry): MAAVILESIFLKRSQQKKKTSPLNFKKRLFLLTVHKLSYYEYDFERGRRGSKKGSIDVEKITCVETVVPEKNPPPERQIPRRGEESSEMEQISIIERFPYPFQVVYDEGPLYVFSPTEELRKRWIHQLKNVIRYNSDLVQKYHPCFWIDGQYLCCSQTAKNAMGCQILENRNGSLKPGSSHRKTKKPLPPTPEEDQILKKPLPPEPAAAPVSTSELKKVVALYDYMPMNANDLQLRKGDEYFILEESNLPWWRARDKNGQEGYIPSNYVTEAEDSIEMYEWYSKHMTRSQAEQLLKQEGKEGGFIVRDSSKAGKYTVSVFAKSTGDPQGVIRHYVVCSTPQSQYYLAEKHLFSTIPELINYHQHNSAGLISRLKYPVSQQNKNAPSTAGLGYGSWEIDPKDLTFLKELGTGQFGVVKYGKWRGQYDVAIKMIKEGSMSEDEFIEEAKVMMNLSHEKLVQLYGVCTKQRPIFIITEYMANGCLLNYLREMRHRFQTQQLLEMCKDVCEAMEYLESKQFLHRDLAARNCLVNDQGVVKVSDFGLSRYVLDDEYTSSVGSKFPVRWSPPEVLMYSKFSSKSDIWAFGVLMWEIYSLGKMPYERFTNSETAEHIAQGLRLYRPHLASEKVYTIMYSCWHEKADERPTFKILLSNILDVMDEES

[12] = target: NT-3 growth factor receptor (Homo sapiens, UniProt Q16288); assay: Inhibition of TRKC (unknown origin) in presence of 50 uM ATP
Sequence of NT-3 growth factor receptor (Q16288 whole entry): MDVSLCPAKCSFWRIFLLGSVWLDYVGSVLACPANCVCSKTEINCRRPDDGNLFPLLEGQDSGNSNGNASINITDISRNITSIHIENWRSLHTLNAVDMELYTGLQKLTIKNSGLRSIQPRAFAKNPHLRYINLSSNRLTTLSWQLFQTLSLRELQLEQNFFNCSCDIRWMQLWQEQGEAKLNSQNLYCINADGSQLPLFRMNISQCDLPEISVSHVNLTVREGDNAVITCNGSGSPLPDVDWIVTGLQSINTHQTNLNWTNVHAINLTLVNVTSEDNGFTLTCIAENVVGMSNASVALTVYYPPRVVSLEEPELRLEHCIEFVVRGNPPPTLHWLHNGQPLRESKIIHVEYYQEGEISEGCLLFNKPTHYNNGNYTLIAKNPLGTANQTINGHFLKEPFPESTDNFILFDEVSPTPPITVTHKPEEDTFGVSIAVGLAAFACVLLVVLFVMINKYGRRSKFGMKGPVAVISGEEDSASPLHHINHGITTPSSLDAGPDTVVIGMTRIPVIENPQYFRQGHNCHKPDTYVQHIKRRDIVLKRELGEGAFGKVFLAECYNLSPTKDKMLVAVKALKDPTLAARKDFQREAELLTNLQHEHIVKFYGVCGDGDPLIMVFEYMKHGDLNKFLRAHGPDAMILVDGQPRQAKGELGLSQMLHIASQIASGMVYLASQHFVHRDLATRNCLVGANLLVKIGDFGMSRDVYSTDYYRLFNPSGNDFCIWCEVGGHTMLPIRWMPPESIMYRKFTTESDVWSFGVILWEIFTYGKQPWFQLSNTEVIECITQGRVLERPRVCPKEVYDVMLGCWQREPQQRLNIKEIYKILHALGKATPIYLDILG

[13] = Lipophilicity, LogD at pH 7.4 of the compound by shake flask method; format: physicochemical; conditions: buffer
[14] = species: Homo sapiens; assay: Selectivity index, ratio of IC50 for inhibition of FLT3 (unknown origin) to IC50 for inhibition of IRAK4 (unknown origin)
[15] = species: Homo sapiens; assay: Selectivity index, ratio of IC50 for inhibition of PI3Kdelta (unknown origin) to IC50 for inhibition of IRAK4 (unknown origin)
[16] = species: Homo sapiens; assay: Selectivity index, ratio of IC50 for inhibition of BTK (unknown origin) to IC50 for inhibition of IRAK4 (unknown origin)
[17] = Metabolic stability in human cytosol assessed as intrinsic clearance; format: ADME, subcellular
[18] = target: BDNF/NT-3 growth factors receptor (Homo sapiens, UniProt Q16620); assay: Inhibition of TRKB (unknown origin) in presence of 25 uM ATP
Sequence of BDNF/NT-3 growth factors receptor (Q16620 whole entry): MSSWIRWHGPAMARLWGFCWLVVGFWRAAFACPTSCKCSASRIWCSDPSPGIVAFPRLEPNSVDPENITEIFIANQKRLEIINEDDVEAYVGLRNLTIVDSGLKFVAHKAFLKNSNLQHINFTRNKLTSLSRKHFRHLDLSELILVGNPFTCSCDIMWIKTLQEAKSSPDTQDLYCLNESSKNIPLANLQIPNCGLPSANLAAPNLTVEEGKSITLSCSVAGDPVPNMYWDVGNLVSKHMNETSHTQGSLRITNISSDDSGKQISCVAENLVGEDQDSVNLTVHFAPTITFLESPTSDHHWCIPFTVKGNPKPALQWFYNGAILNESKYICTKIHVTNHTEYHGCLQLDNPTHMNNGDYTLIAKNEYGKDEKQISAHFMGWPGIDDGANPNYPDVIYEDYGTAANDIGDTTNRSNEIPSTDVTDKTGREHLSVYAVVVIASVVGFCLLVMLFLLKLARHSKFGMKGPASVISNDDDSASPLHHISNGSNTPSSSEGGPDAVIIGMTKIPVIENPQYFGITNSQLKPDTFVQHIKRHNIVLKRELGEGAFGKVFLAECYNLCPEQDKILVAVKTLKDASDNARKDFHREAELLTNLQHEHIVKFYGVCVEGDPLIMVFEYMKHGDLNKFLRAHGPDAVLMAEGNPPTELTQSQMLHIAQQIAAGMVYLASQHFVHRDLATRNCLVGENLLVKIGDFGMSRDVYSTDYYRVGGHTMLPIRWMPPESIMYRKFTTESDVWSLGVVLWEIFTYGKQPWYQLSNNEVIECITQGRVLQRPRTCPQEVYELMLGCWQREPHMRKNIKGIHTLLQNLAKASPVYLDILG

[19] = species: Homo sapiens; assay: Selectivity index, ratio of IC50 for inhibition of IRAK1 (unknown origin) to IC50 for inhibition of IRAK4 (unknown origin)
[20] = target: High affinity nerve growth factor receptor (Homo sapiens, UniProt P04629); assay: Inhibition of TRKA (unknown origin) in presence of 400 uM ATP
Sequence of High affinity nerve growth factor receptor (P04629 whole entry): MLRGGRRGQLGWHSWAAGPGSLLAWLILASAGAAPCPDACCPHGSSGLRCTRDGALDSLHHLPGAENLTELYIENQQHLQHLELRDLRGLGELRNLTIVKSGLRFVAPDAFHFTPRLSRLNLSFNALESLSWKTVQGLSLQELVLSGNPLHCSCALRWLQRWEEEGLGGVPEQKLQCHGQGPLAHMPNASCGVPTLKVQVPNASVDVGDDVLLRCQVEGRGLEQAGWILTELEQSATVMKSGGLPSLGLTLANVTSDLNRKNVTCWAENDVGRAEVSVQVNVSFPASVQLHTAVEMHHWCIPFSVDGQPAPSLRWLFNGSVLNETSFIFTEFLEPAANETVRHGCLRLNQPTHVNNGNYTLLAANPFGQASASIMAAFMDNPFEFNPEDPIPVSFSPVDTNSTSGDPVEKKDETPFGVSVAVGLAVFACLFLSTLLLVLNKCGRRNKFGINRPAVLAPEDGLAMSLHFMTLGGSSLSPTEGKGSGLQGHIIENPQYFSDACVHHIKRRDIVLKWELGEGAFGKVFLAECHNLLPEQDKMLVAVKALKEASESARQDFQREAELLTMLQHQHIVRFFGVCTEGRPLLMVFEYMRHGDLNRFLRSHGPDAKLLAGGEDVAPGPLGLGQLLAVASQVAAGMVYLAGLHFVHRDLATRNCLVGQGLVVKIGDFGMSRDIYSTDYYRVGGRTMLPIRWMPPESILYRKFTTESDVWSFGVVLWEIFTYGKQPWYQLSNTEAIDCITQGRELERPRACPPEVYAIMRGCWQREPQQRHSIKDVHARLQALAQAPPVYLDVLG

Which results are given for `CN1CCC(n2cc(Nc3nc(OC4(C)CC4)c4nc(-c5cncnc5)ccc4n3)cn2)CC1`?
IC50 [1]: 24 nM; Ratio IC50 [2]: 60; Ratio IC50 [3]: 32; microsomal CLint [4]: 96 µL/min/mg; IC50 [5]: 2 nM; hepatocyte CLint [6]: 110 µL/min/1e6 cells; IC50 [7]: 0.6 nM; IC50 [8]: 1200 nM; Ratio IC50 [9]: 140; IC50 [10]: 18 nM; IC50 [11]: 44 nM; IC50 [12]: 36 nM; logD [13]: 2; Ratio IC50 [14]: > 1000; Ratio IC50 [15]: 30; Ratio IC50 [16]: 70; microsomal CLint [17]: 191 µL/min/mg; IC50 [18]: 82 nM; Ratio IC50 [19]: 3; IC50 [20]: 19 nM
